PubChem BioAssay (NCI)
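All cell lines were grown in 96-well plates and treated with compound for 48 hours. TGI denotes the concentration required for complete inhibition of growth.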

Experiments:
Assay in all cases: growth of human tumour cells (NCI), 48 h
786-0 renal = test system: 786-0 renal
A549 NSCLC = test system: A549 NSCLC
ACHN renal = test system: ACHN renal
CAKI-1 renal = test system: CAKI-1 renal
CCRF-CEM leukemia = test system: CCRF-CEM leukemia
COLO 205 colon = test system: COLO 205 colon
DLD-1 colon = test system: DLD-1 colon
DMS 114 small cell lung = test system: DMS 114 small cell lung
DMS 273 small cell lung = test system: DMS 273 small cell lung
EKVX NSCLC = test system: EKVX NSCLC
HCC-2998 colon = test system: HCC-2998 colon
HCT-15 colon = test system: HCT-15 colon
HL-60(TB) leukemia = test system: HL-60(TB) leukemia
HOP-18 NSCLC = test system: HOP-18 NSCLC
HOP-62 NSCLC = test system: HOP-62 NSCLC
HOP-92 NSCLC = test system: HOP-92 NSCLC
HT29 colon = test system: HT29 colon
IGROV1 ovarian = test system: IGROV1 ovarian
K-562 leukemia = test system: K-562 leukemia
KM12 colon = test system: KM12 colon
KM20L2 colon = test system: KM20L2 colon
LOX IMVI melanoma = test system: LOX IMVI melanoma
LXFL 529 NSCLC = test system: LXFL 529 NSCLC
M14 melanoma = test system: M14 melanoma
M19-MEL melanoma = test system: M19-MEL melanoma
MALME-3M melanoma = test system: MALME-3M melanoma
MOLT-4 leukemia = test system: MOLT-4 leukemia
NCI-H23 lung = test system: NCI-H23 lung
NCI-H460 lung = test system: NCI-H460 lung
NCI-H522 lung = test system: NCI-H522 lung
OVCAR-3 ovarian = test system: OVCAR-3 ovarian
OVCAR-4 ovarian = test system: OVCAR-4 ovarian
OVCAR-5 ovarian = test system: OVCAR-5 ovarian
OVCAR-8 ovarian = test system: OVCAR-8 ovarian
RPMI-8226 leukemia = test system: RPMI-8226 leukemia
SF-268 CNS = test system: SF-268 CNS
SF-295 CNS = test system: SF-295 CNS
SF-539 CNS = test system: SF-539 CNS
SK-MEL-2 melanoma = test system: SK-MEL-2 melanoma
SK-MEL-28 melanoma = test system: SK-MEL-28 melanoma
SK-MEL-5 melanoma = test system: SK-MEL-5 melanoma
SK-OV-3 ovarian = test system: SK-OV-3 ovarian
SN12C renal = test system: SN12C renal
SNB-19 CNS = test system: SNB-19 CNS
SNB-75 CNS = test system: SNB-75 CNS
SW-620 colon = test system: SW-620 colon
TK-10 renal = test system: TK-10 renal
U251 CNS = test system: U251 CNS
UACC-257 melanoma = test system: UACC-257 melanoma
UACC-62 melanoma = test system: UACC-62 melanoma
UO-31 renal = test system: UO-31 renal
A498 renal = test system: A498 renal
HCT-116 colon = test system: HCT-116 colon
NCI-H226 lung = test system: NCI-H226 lung
RXF 393 renal = test system: RXF 393 renal
SNB-78 CNS = test system: SNB-78 CNS

CN(C)C=C1C(Cl)=C(C=O)CC(C=O)=C1Cl
TGI (786-0 renal): 24.5 µM | TGI (A549 NSCLC): > 100 µM | TGI (ACHN renal): 26.4 µM | TGI (CAKI-1 renal): 31.2 µM | TGI (CCRF-CEM leukemia): 10.6 µM | TGI (COLO 205 colon): 30.6 µM | TGI (DLD-1 colon): 20.9 µM | TGI (DMS 114 small cell lung): 26.1 µM | TGI (DMS 273 small cell lung): 29 µM | TGI (EKVX NSCLC): 54.3 µM | TGI (HCC-2998 colon): 28.7 µM | TGI (HCT-15 colon): 11.9 µM | TGI (HL-60(TB) leukemia): 4.74 µM | TGI (HOP-18 NSCLC): 26.8 µM | TGI (HOP-62 NSCLC): 51.7 µM | TGI (HOP-92 NSCLC): 21.8 µM | TGI (HT29 colon): 30 µM | TGI (IGROV1 ovarian): 33 µM | TGI (K-562 leukemia): 13.8 µM | TGI (KM12 colon): 22.1 µM | TGI (KM20L2 colon): 41 µM | TGI (LOX IMVI melanoma): 6.07 µM | TGI (LXFL 529 NSCLC): 4.45 µM | TGI (M14 melanoma): 26.7 µM | TGI (M19-MEL melanoma): 29.1 µM | TGI (MALME-3M melanoma): 24.4 µM | TGI (MOLT-4 leukemia): 10.2 µM | TGI (NCI-H23 lung): 37.1 µM | TGI (NCI-H460 lung): 39.7 µM | TGI (NCI-H522 lung): 4.14 µM | TGI (OVCAR-3 ovarian): 27.7 µM | TGI (OVCAR-4 ovarian): 27.9 µM | TGI (OVCAR-5 ovarian): 30 µM | TGI (OVCAR-8 ovarian): 12.6 µM | TGI (RPMI-8226 leukemia): 7.2 µM | TGI (SF-268 CNS): 27.6 µM | TGI (SF-295 CNS): 41.7 µM | TGI (SF-539 CNS): 27.9 µM | TGI (SK-MEL-2 melanoma): 36.9 µM | TGI (SK-MEL-28 melanoma): 22.6 µM | TGI (SK-MEL-5 melanoma): 23.5 µM | TGI (SK-OV-3 ovarian): 79.7 µM | TGI (SN12C renal): > 100 µM | TGI (SNB-19 CNS): 27.3 µM | TGI (SNB-75 CNS): 29.5 µM | TGI (SW-620 colon): 7.3 µM | TGI (TK-10 renal): 31.8 µM | TGI (U251 CNS): 23.7 µM | TGI (UACC-257 melanoma): 30.8 µM | TGI (UACC-62 melanoma): 32.5 µM | TGI (UO-31 renal): 35.1 µM

CC(C)(C)C(=O)OC12/C(=N/O)CCCCCC1c1ccccc12 (stereo not given)
TGI (786-0 renal): 31 µM | TGI (A498 renal): 30.5 µM | TGI (A549 NSCLC): 31.6 µM | TGI (ACHN renal): 31.8 µM | TGI (CAKI-1 renal): 24.6 µM | TGI (CCRF-CEM leukemia): 64 µM | TGI (COLO 205 colon): 31.3 µM | TGI (DLD-1 colon): 34.6 µM | TGI (DMS 114 small cell lung): 35.4 µM | TGI (DMS 273 small cell lung): 34.3 µM | TGI (HCC-2998 colon): > 100 µM | TGI (HCT-116 colon): 27.5 µM | TGI (HCT-15 colon): 33 µM | TGI (HL-60(TB) leukemia): 45.5 µM | TGI (HOP-18 NSCLC): 34 µM | TGI (HOP-62 NSCLC): 37 µM | TGI (HT29 colon): 26 µM | TGI (IGROV1 ovarian): 29.6 µM | TGI (K-562 leukemia): 55.4 µM | TGI (KM12 colon): 30.1 µM | TGI (KM20L2 colon): 36.5 µM | TGI (LOX IMVI melanoma): 28.8 µM | TGI (LXFL 529 NSCLC): 30.3 µM | TGI (M14 melanoma): 31.2 µM | TGI (M19-MEL melanoma): 30.2 µM | TGI (MALME-3M melanoma): 37.4 µM | TGI (MOLT-4 leukemia): 34.4 µM | TGI (NCI-H226 lung): 35.4 µM | TGI (NCI-H23 lung): 31.3 µM | TGI (NCI-H460 lung): 32.3 µM | TGI (NCI-H522 lung): 35 µM | TGI (OVCAR-3 ovarian): 32.1 µM | TGI (OVCAR-4 ovarian): 33 µM | TGI (OVCAR-5 ovarian): 28.7 µM | TGI (OVCAR-8 ovarian): 33.4 µM | TGI (RPMI-8226 leukemia): 30.9 µM | TGI (RXF 393 renal): 33.9 µM | TGI (SF-268 CNS): 32.4 µM | TGI (SF-295 CNS): 29.2 µM | TGI (SF-539 CNS): 39 µM | TGI (SK-MEL-2 melanoma): 37.3 µM | TGI (SK-MEL-28 melanoma): 32.8 µM | TGI (SK-MEL-5 melanoma): 31.7 µM | TGI (SK-OV-3 ovarian): 33.6 µM | TGI (SN12C renal): 33.6 µM | TGI (SNB-19 CNS): 31.1 µM | TGI (SNB-75 CNS): 27.8 µM | TGI (SNB-78 CNS): 46.6 µM | TGI (SW-620 colon): 34.2 µM | TGI (TK-10 renal): 30.1 µM | TGI (U251 CNS): 33.1 µM | TGI (UACC-257 melanoma): 28.5 µM | TGI (UACC-62 melanoma): 31.5 µM | TGI (UO-31 renal): 31.7 µM
